Patent US20210085640A1, “ACYLATED CATECHIN POLYPHENOLS AND METHODS OF THEIR USE FOR THE TREATMENT OF CANCER” (Flagship Pioneering Innovations V, Inc., priority 2018, published 2021)

Key:
Type in all cases: cell-based
T24 bladder cancer cells = test: Cancer cell survival (CellTiter-Glo), T24; conditions: Homo sapiens
In short: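 Viability by CellTiter-Glo after 72 h compound treatment of T24 bladder cancer cells (4×10^3/well, plated the night before), nine concentration levels in triplicate. Percent survival normalised to untreated cells minus medium background, from which IC50 was determined.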

A-431 skin cancer cells = test: Cancer cell survival (CellTiter-Glo), A-431; conditions: Homo sapiens, A-431 cells, 72 h
In short: (§1)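 CellTiter-Glo luminescence after 72 h compound exposure (37 C, 5% CO2; nine concentration levels, triplicate) of overnight-plated cells at 4×10^3 per well. IC50 calculated from survival % relative to untreated cells after medium-background subtraction.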

[1] = tested on: HCT 116 colorectal cancer cells; test: Cancer cell survival (CellTiter-Glo), HCT 116; conditions: Homo sapiens, HCT 116 cells, 72 h
In short: as §1

MCF7 breast cancer cells = test: Cancer cell survival (CellTiter-Glo), MCF7; conditions: Homo sapiens, 72 h
In short: as §1

A549 lung cancer cells = test: Cancer cell survival (CellTiter-Glo), A549; conditions: Homo sapiens, 72 h
In short: as §1

[2] = tested on: PC-3 prostate cancer cells; test: Cancer cell survival (CellTiter-Glo), PC-3; conditions: Homo sapiens, PC-3 cells, 72 h
In short: as §1

[3] = tested on: Daudi lymphoma cancer cells; test: Cancer cell survival (CellTiter-Glo), Daudi; conditions: Homo sapiens, 72 h
In short: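 Daudi cells (4×10^3/well) were exposed for 72 h at 37 °C to nine concentrations of compound, added as 10× solutions spanning 1 μM–10 mM (fatty acids) or 100 nM–1 mM (others). CellTiter-Glo luminescence gave % survival versus untreated, medium-blank corrected; IC50 derived.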

AGS stomach cancer cells = test: Cancer cell survival (CellTiter-Glo), AGS
In short: as §1

[4] = 101 nM, read-out: Cell survival at given concentration
[5] = 318 nM, read-out: Cell survival at given concentration
[6] = 1 μM, read-out: Cell survival at given concentration
[7] = 3 μM, read-out: Cell survival at given concentration
[8] = 10 μM, read-out: Cell survival at given concentration
[9] = 32 μM, read-out: Cell survival at given concentration
[10] = 100 μM, read-out: Cell survival at given concentration
[11] = 316 μM, read-out: Cell survival at given concentration
[12] = 1000 μM, read-out: Cell survival at given concentration

Oc1cc(O)c2c(c1)O[C@H](c1cc(O)c(O)c(O)c1)[C@H](O)C2 [EGC, epigallocatechin]
viability at 0.101 µM (T24 bladder cancer cells; T-24, 101 nM, 72 h, read-out: Cell survival at given concentration): 99%
viability at 0.318 µM (T24 bladder cancer cells; T-24, 318 nM, 72 h, read-out: Cell survival at given concentration): 103%
viability at 1 µM (T24 bladder cancer cells; T-24, 1 μM, 72 h, read-out: Cell survival at given concentration): 103%
viability at 3 µM (T24 bladder cancer cells; T-24, 3 μM, 72 h, read-out: Cell survival at given concentration): 101%
viability at 10 µM (T24 bladder cancer cells; T-24, 10 μM, 72 h, read-out: Cell survival at given concentration): 100%
viability at 32 µM (T24 bladder cancer cells; T-24, 32 μM, 72 h, read-out: Cell survival at given concentration): 84%
viability at 100 µM (T24 bladder cancer cells; T-24, 100 μM, 72 h, read-out: Cell survival at given concentration): 0%
viability at 316 µM (T24 bladder cancer cells; T-24, 316 μM, 72 h, read-out: Cell survival at given concentration): 0%
viability at 1000 µM (T24 bladder cancer cells; T-24, 1000 μM, 72 h, read-out: Cell survival at given concentration): 0%
IC50 (T24 bladder cancer cells; T-24, 72 h, Table 3.1, read-out: 1050): 40 µM
viability at 0.101 µM (A-431 skin cancer cells; [4]): 103%
viability at 0.318 µM (A-431 skin cancer cells; [5]): 103%
viability at 1 µM (A-431 skin cancer cells; [6]): 102%
viability at 3 µM (A-431 skin cancer cells; [7]): 102%
viability at 10 µM (A-431 skin cancer cells; [8]): 98%
viability at 32 µM (A-431 skin cancer cells; [9]): 96%
viability at 100 µM (A-431 skin cancer cells; [10]): 95%
viability at 316 µM (A-431 skin cancer cells; [11]): 60%
viability at 1000 µM (A-431 skin cancer cells; [12]): 0%
IC50 (A-431 skin cancer cells; Table 9.1): 385 µM
viability at 0.101 µM [1, 4]: 99%
viability at 0.318 µM [1, 5]: 98%
viability at 1 µM [1, 6]: 100%
viability at 3 µM [1, 7]: 101%
viability at 10 µM [1, 8]: 99%
viability at 32 µM [1, 9]: 97%
viability at 100 µM [1, 10]: 1%
viability at 316 µM [1, 11]: 0%
viability at 1000 µM [1, 12]: 0%
IC50 ([1]; Table 6.1): 50.3 µM
viability at 0.101 µM (MCF7 breast cancer cells; [4]): 93%
viability at 0.318 µM (MCF7 breast cancer cells; [5]): 97%
viability at 1 µM (MCF7 breast cancer cells; [6]): 97%
viability at 3 µM (MCF7 breast cancer cells; [7]): 102%
viability at 10 µM (MCF7 breast cancer cells; [8]): 92%
viability at 32 µM (MCF7 breast cancer cells; [9]): 100%
viability at 100 µM (MCF7 breast cancer cells; [10]): 90%
viability at 316 µM (MCF7 breast cancer cells; [11]): 56%
viability at 1000 µM (MCF7 breast cancer cells; [12]): 2%
IC50 (MCF7 breast cancer cells; Table 5.1): 355 µM
viability at 0.101 µM (A549 lung cancer cells; [4]): 98%
viability at 0.318 µM (A549 lung cancer cells; [5]): 100%
viability at 1 µM (A549 lung cancer cells; [6]): 100%
viability at 3 µM (A549 lung cancer cells; [7]): 100%
viability at 10 µM (A549 lung cancer cells; [8]): 94%
viability at 32 µM (A549 lung cancer cells; [9]): 96%
viability at 100 µM (A549 lung cancer cells; [10]): 94%
viability at 316 µM (A549 lung cancer cells; [11]): 81%
viability at 1000 µM (A549 lung cancer cells; [12]): 9%
IC50 (A549 lung cancer cells; Table 7.1): 640 µM
viability at 0.101 µM [2, 4]: 103%
viability at 0.318 µM [2, 5]: 99%
viability at 1 µM [2, 6]: 100%
viability at 3 µM [2, 7]: 101%
viability at 10 µM [2, 8]: 102%
viability at 32 µM [2, 9]: 98%
viability at 100 µM [2, 10]: 96%
viability at 316 µM [2, 11]: 96%
viability at 1000 µM [2, 12]: 36%
IC50 ([2]; Table 8.1): 899 µM
viability at 0.101 µM [3, 4]: 100%
viability at 0.318 µM [3, 5]: 101%
viability at 1 µM [3, 6]: 101%
viability at 3 µM [3, 7]: 103%
viability at 10 µM [3, 8]: 102%
viability at 32 µM [3, 9]: 99%
viability at 100 µM [3, 10]: 0%
viability at 316 µM [3, 11]: 0%
viability at 1000 µM [3, 12]: 0%
IC50 ([3]; Table 4.1): 47.5 µM
viability at 0.101 µM (AGS stomach cancer cells; 72 h, 101 nM, read-out: Cell survival at given concentration): 103%
viability at 0.318 µM (AGS stomach cancer cells; 72 h, 318 nM, read-out: Cell survival at given concentration): 103%
viability at 1 µM (AGS stomach cancer cells; 72 h, 1 μM, Table 10.1, read-out: Cell survival at given concentration): 108%
viability at 3 µM (AGS stomach cancer cells; 72 h, 3 μM, Table 10.1, read-out: Cell survival at given concentration): 105%
viability at 10 µM (AGS stomach cancer cells; 72 h, 10 μM, Table 10.1, read-out: Cell survival at given concentration): 104%
viability at 32 µM (AGS stomach cancer cells; 72 h, 32 μM, Table 10.1, read-out: Cell survival at given concentration): 104%
viability at 100 µM (AGS stomach cancer cells; 72 h, 100 μM, Table 10.1, read-out: Cell survival at given concentration): 107%
viability at 316 µM (AGS stomach cancer cells; 72 h, 316 μM, read-out: Cell survival at given concentration): 80%
viability at 1000 µM (AGS stomach cancer cells; 72 h, 1000 μM, read-out: Cell survival at given concentration): 8%
IC50 (AGS stomach cancer cells; Table 10.1): 477 µM
